Assay results reported in US10202658B2, “Methods for determining hypersusceptibility of HIV-1 to non-nucleoside reverse transcriptase inhibitors” (Monogram Biosciences, Inc., priority 2005, dated 2019).

How the values were obtained:
Format in all cases: cell-based
[1] = tested on: HIV-1, RT mutations: T215Y and 2 TAMs and V118 wt; experiment: PhenoSense resistance test vector assay, clinical isolates with T215Y and 2 TAMs and V118 wt; settings: share of samples designated hypersusceptible
Method: (§1) In preferred embodiments, the phenotypic analysis of NNRTI hypersusceptibility is performed using PHENOSENSE™ (ViroLogic Inc., South San Francisco, Calif.). See Petropoulos et al., 2000, Antimicrob. Agents Chemother. 44:920-928; U.S. Pat. Nos. 5,837,464 and 6,242,187. PHENOSENSE™ is a phenotypic assay that achieves the benefits of phenotypic testing and overcomes the drawbacks of previous assays. Because the assay has been automated, PHENOSENSE™ provides high throughput methods under controlled conditions for determining NNRTI resistance, susceptibility, or hypersusceptibility of a large number of individual viral isolates.
(§2) The assay can be performed by first co-transfecting host cells with RTV DNA and a plasmid that expresses the envelope proteins of another retrovirus, for example, amphotropic murine leukemia virus (MLV). Following transfection, viral particles can be harvested from the cell culture and used to infect fresh target cells in the presence of varying amounts of anti-viral drug(s). The completion of a single round of viral replication in the fresh target cells can be detected by the means for detecting replication contained in the vector. In a preferred embodiment, the completion of a single round of viral replication results in the production of luciferase. By monitoring the amount of, e.g., luciferase activity in the presence of the varying amounts of antiviral drug(s), a resistance curve can be constructed by plotting luciferase activity versus drug concentration. The susceptibility of an HIV, or population of HIV, can be determined by measuring the concentration of antiviral drug at which the luciferase activity detected is half-maximal. This number, the IC50, provides a standard and convenient measure of drug resistance.
(§3) Patient-derived segment(s) corresponding to the HIV protease and reverse transcriptase coding regions were amplified by the reverse transcription-polymerase chain reaction method (RT-PCR) using viral RNA isolated from viral particles present in the plasma or serum of HIV-infected individuals as follows. […]

[2] = tested on: HIV-1, RT mutations: None; experiment: PhenoSense resistance test vector assay, clinical isolates without NRTI, NNRTI or PI mutations (WT reference group); settings: share of samples designated hypersusceptible
Method: as §1, §2, §3

[3] = tested on: HIV-1, RT mutations: T215Y and 2 TAMs and H208 wt; experiment: PhenoSense resistance test vector assay, clinical isolates with T215Y and 2 TAMs and H208 wt; settings: share of samples designated hypersusceptible
Method: as §1, §2, §3

HIV-1, RT mutations: 69X = experiment: PhenoSense resistance test vector assay, clinical isolates with 69X; settings: share of samples designated hypersusceptible
Method: as §1, §2, §3

[4] = tested on: HIV-1, RT mutations: 2 NAMs; experiment: PhenoSense resistance test vector assay, clinical isolates with 2 NAMs; settings: share of samples designated hypersusceptible
Method: as §1, §2, §3

[5] = tested on: HIV-1, RT mutations: 184V; experiment: PhenoSense resistance test vector assay, clinical isolates with 184V; settings: share of samples designated hypersusceptible
Method: as §1, §2, §3

[6] = tested on: HIV-1, RT mutations: 1 NAM; experiment: PhenoSense resistance test vector assay, clinical isolates with 1 NAM; settings: share of samples designated hypersusceptible
Method: as §1, §2, §3

[7] = tested on: HIV-1, RT mutations: 3 NAMs; experiment: PhenoSense resistance test vector assay, clinical isolates with 3 NAMs; settings: share of samples designated hypersusceptible
Method: as §1, §2, §3

[8] = tested on: HIV-1, RT mutations: T215Y and 2 TAMs and H208X; experiment: PhenoSense resistance test vector assay, clinical isolates with T215Y and 2 TAMs and H208X; settings: share of samples designated hypersusceptible
Method: as §1, §2, §3

[9] = tested on: HIV-1 NL4-3 SDM, K65R in reverse transcriptase; experiment: NNRTI susceptibility of site-directed mutant (SDM) bearing only K65R in NL4-3 background; settings: mean+/-SD of 18 replicates, p<0.00001 versus reference
Method: as §1
as §2, with “By monitoring the amount of, e.g., luciferase activity in the presence of the varying amounts of antiviral drug(s), a resistance curve can be constructed by plotting luciferase activity versus drug concentration.” left out, “This number, the IC50, provides a standard and convenient measure of drug resistance.” left out
Resistance tests were carried out with resistance test vectors using two host cell types. […] The resistance test vector viral particles were then used to infect a second host cell (the target host cell) in which the expression of the indicator gene is measured.
The amount of luciferase activity detected in infected cells is used as a direct measure of “infectivity,” i.e., the ability of the virus to complete a single round of replication. Thus, drug resistance or sensitivity can be determined by plotting the amount of luciferase activity produced by patient derived viruses in the presence of varying concentrations of the antiviral drug. […]

Row | SMILES | % IC50 0.4 fold < WT [1] [%] | % IC50 0.4 fold < WT [2] [%] | % IC50 0.4 fold < WT [3] [%] | % IC50 0.4 fold < WT (HIV-1, RT mutations: 69X) [%] | % IC50 0.4 fold < WT [4] [%] | % IC50 0.4 fold < WT [5] [%] | % IC50 0.4 fold < WT [6] [%] | % IC50 0.4 fold < WT [7] [%] | % IC50 0.4 fold < WT [8] [%] | FC (fold change in IC50) [9]
1 | CC(C)Nc1cccnc1N1CCN(C(=O)c2cc3cc(NS(C)(=O)=O)ccc3[nH]2)CC1 [DLV, delavirdine] | 83.9 | 4.9 | 68.7 | 13.2 | 30.1 | 12.3 | 13.2 | 12.8 | 90.9 | 0.54+/−0.03
2 | O=C1Nc2ccc(Cl)cc2[C@@](C#CC2CC2)(C(F)(F)F)O1 [EFV, efavirenz] | 78.1 | 4.2 | 55.1 | 19.8 | 39.8 | 16.9 | 17.8 | 28.2 | 54.5 | 0.56+/−0.02
3 | Cc1ccnc2c1NC(=O)c1cccnc1N2C1CC1 [NVP, nevirapine] | 37.5 | 8.1 | 34.8 | 20.8 | 39.8 | 16.3 | 18.0 | 17.9 | 9.1 | 0.53+/−0.05
